Legend:
[1] = test system: MMP 2 protein; assay: Antigen-capture ELISA of renal graft lysates, total MMP 2 protein; format: in vivo, rat; details: vs untreated allogeneic group (FIG. 5B); 1,25-(OH)2D3: syngeneic and allogeneic groups; CSA: allogeneic
Protocol: FIG. 5 is a set of graphs showing that 1,25-(OH)2D3 Treatment Alters MMP and TIMP Expression . […] S26 was used as the housekeeping gene. […] Fold changes are expressed relative to the allogeneic untreated control.
Enzyme Linked Immunoabsorbant Assay (ELISA): TGFβ-1 and MMP 2 levels were quantified by antigen-capture ELISA. […] After blocking with 1× block buffer at 37° C. for 35 minutes 25 ul of cell lysate (diluted 1:10 in the lysis buffer) was added to the wells. A standard curve was generated by performing two fold serial dilutions of the standard active TGFβ-1 antigen (diluted 15.6 pg/ml to 1000 pg/ml, Promega, Inc.) or MMP2 (0.5 ng/ml to 100 ng/ml, R and D Systems). The plate was incubated for 2 hours at RT with shaking and then washed extensively with wash buffer (0.05% Tween 20 in PBS) followed by PBS. The TGFβ-1 ELISA was then developed according to the manufacturer's instruction. For the MMP2 ELISA, biotinylated detection antibody, clone 101721 (25 μL/well at 1.4 ug/ml R and D Systems) was added and incubated at RT (1hour, with shaking). The antibody was biotinylated using a Mini-Biotin-XX Protein Labeling Kit (F-6347) according to manufacturer's instruction (Molecular Probes, Eugene Oreg.). […] Absorbance was measured at 450 nm on a Vmax Kinetic microplate reader (Molecular Devices, Sunnyvale Calif.). […]

[2] = test system: kidney or kidney-pancreas transplant recipients; details: human, in vivo
Excerpt: Methodology-retrospective analysis: The University of Wisconsin transplant database was screened to identify any kidney and/or kidney-pancreas transplant recipient who received 1,25-dihydroxyvitamin D3 (calcitriol)peri-post-transplant. Clinical and demographic variables were abstracted from the database. Those patients with adequate follow-up data were included in the analysis (≧1year follow-up data following the initiation of calcitriol). Demographic variables included race, age, and nay history of parathyroidectomy as these patients would likely be receiving calcitriol at time of transplantation. The effect of calcitriol treatment on renal function was analyzed using general linear mixed modeling of the change in slope of renal function prior to and following the start of calcitriol therapy. […] Adverse events and hypercalcemia were noted by identifiers in the database and by serum calcium levels as recorded in the database. Hypercalcemia was defined as a serum calcium >10.5 mg/dl.
The mean serum calcium in Group 1 and Group 2 patients was <10 mg/dl (9.6±0.9 mg/dl). There were no episodes of sustained hypercalcemia (>2 serial hypercalcemia values noted) or hypercalcemia events requiring hospitalization. There were no episodes of substained hematuria that could be directly attributable to hypercalcemia.

[3] = test system: Smad 2 protein; assay: Western blot of renal graft lysates, Smad 2 protein; format: in vivo, rat; details: vs allogeneic untreated controls
Excerpt: Renal lysates were subjected to SDS-PAGE and transferred to nitrocellulose membranes. The membranes were probed with specific anti-Smad antibodies and appropriated HRP-conjugated secondary antibodies. Signal was detected with chemilumensnce. Following exposure, x-ray films were scanned and the amount of expression compared to that of tubulin as an internal control using Scion Image software. FIG. 4 (A) describes R-Smad expression. FIG. 4 (B) described I-Smad expression.
Western Blot Analysis: A portion of the snap frozen graft containing both cortex and medulla was ground with a mortar and pestle. For each 100 mg of tissue, the sample was resuspened in 400 ul of lysis buffer (10 mM Tris base, 150 mM NaCl, pH 8.0) containing protease inhibitors (P2714 1:1000. Sigma Chemical Co., St. Louis, Mo.) and homogenized (PowerGen 125, 1 minute). Triton X100 was then added to 1% and the sample place on ice, for 30 minutes. The solubilized sample was then spun at 4° C. for 15 minutes at 15,000×G. The supernatant was collected and stored at −80° C. Sample protein concentrations were determined using the Micro BCA assay (Pierce Chemical Co., Rockford, Ill.) according to manufacturer=s instructions, except that the assay was performed in half area plates combining 35 μl sample with 70 µl of reagent. […]

- Episodes of sustained hematuria attributable to hypercalcemia [2]: no episodes
Compound: C=C1/C(=C\C=C2/CCC[C@]3(C)[C@@H]([C@H](C)CCCC(C)(C)O)CC[C@@H]23)C[C@@H](O)C[C@@H]1O [calcitriol, 1,25-dihydroxyvitamin D3]
- Total MMP 2 protein expression [1]: increased
- Decrease in Smad 2 protein levels ([3]; 500 ng/rat/day (data not shown)): 208 fold
- Decrease in Smad 2 protein levels ([3]; 1000 ng/rat/day, p=0.04): 516 fold

Reference: US20080021002A1, “VITAMIN D COMPOUNDS USED TO STABILIZE KIDNEY TRANSPLANTS” (priority 2000, published 2008)
